Reference: publication PMC6894747 (PLoS Pathogens, 2019)
Positions of bridges follow the written chain, without caps; N, C: chain ends. Residues, ends and D or L forms follow the SMILES beside them. No end group written: not given here.

What was measured:
T20-resistant strains = assay: Inhibition of T20-resistant HIV-1 variants, average; assay type: cell-based; details: comparison with CP24
Method: Briefly, 1×10^5/mL MT-2 or M7 cells were infected with different HIV-1 viruses at 100 TCID50 (50% tissue culture infective dose) in the presence or absence of peptides at graded concentrations overnight. Then the culture supernatants were replaced with equal volume of fresh medium. On the fourth day post-infection, supernatants were collected and mixed with equal volume of 5% Triton X-100. […] The IC50 values were calculated with CalcuSyn software [35–36], and inhibition curves of best fit were generated with GraphPad Prism.

rhesus monkey IgG = assay: ELISA binding to rhesus monkey IgG; details: ELISA on peptide-coated plate; one site specific binding fit; ± SE, three replicates per point; read-out: Estimated Kd of binding to rhesus monkey IgG
Method: Next, different concentrations of human or rhesus monkey IgG were added to the peptide-coated plate and incubated at 37 °C for 1 h. Rabbit anti-human IgG-HRP (1:3000 diluted) was added to each well and incubated at 37 °C for another 1 h. Afterwards, the bound IgG-HRP was detected by addition of the HRP substrate TMB. The reaction was terminated by addition of 1 M H2SO4 50 μL. Absorbance at 450 nm was measured using an ELISA reader (Ultra 384; Tecan, Research Triangle Park, NC).
The data was fitted to the “one site – specific binding” using GraphPad Prism. The standard error (SE) is given for a sample size of three replicates per data point.

[1] = molecular target: T1, 6-HB formation between N36 and C34 (Human immunodeficiency virus type 1 group M subtype B, UniProt P04578); assay: Inhibition of 6-HB formation, sandwich ELISA; assay type: biochemical, HIV-1; details: N36 and C34 1 μM each, triplicate
T1 construct: purchased KareBay Biochem, Inc; host or cells: solid-phase chemical synthesis
T1 sequence (P04578 546-581): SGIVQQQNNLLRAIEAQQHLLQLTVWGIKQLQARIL
Method: The inhibitory activity of peptides on 6-HB formation was measured by the sandwich ELISA method, as previously described. Briefly, a 96-well polystyrene plate (Costar, Corning Inc., Corning, NY) was coated with rabbit anti-gp41 (NY-364) (2 μg/mL in 0.1 M Tris, pH 8.8). […] The mixture was added to the NY-364-coated plate, followed by incubation at room temperature for 60 min and washed three times with a washing buffer (PBS containing 0.1% Tween 20). The monoclonal antibody NC-1(1 μg/mL) was added to the plate and incubated at room temperature for 60 min, followed by washing three times. Rabbit anti-mouse IgG-HRP (Sigma) (1:3000 diluted) was added to each well and incubated at 37 °C for 1 h. The substrate 3, 3’, 5, 5’-tetramethylbenzidine (TMB; Sigma) was then added sequentially. Absorbance at 450 nm was measured using an ELISA reader (Ultra 384; Tecan, Research Triangle Park, NC). The percent inhibition by the peptides and the IC50 were calculated, as previously described.

[2] = tested on: H9/HIV-1IIIB target cells with PBMC effector cells; assay: ADCC assay, 10E8-mediated lysis; assay type: cell-based, human; details: peptide up to 20 μM added to 10E8
Method: H9/HIV-1IIIB cells expressing HIV-1 Env (2.5 × 10^4 cells) as the target cells were seeded into a 96-well plate (25 μL/well), and the mixture of a serially diluted inhibitors and 10E8 (1.5 μg/mL) was added to the culture plate. PBMC (AllCells) as effector cells (2.5 × 10^4 cells in 25 μL) were cocultured with the mixture-treated target cells at 37 °C overnight, and the […] activity was measured using the CytoTox-ONE Homogeneous Membrane Integrity Assay (Promega).

[3] = rhesus monkeys; for t1/2: plasma, 10 mg/kg i.v., active peptide concentration estimated from ex vivo anti-HIV-1 IIIB activity (DF-IC50) and in vitro IC50, MODFIT; for AUC(0-t) / Cmax / MRT 0-inf_obs / Tmax: concentration estimated from ex vivo anti-HIV-1 activity
HIV-1 IIIB [4] = assay: Inhibitors alone or in combination against HIV-1 IIIB; assay type: cell-based; details: mixture N6 / IBP-CP24, HIV-1 IIIB
Method: The samples were serially diluted and tested for their inhibitory activity on HIV-1 infection as described above. The data were analyzed for synergistic effect by calculating the combination index (CI) with the CalcuSyn software. CI values of <0.95 and >1.05 indicate synergy and antagonism, respectively. CI <0.1, 0.1–0.3, 0.3–0.7, 0.7–0.85, and 0.85–0.90 indicate very strong synergism, strong synergism, synergism, moderate synergism, and slight synergism, respectively. Fold of dose reduction was calculated with the ratio of concentrations of inhibitor testing alone and in combination.

gp41 NHR peptide N36 = molecular target: T2, gp41 NHR peptide N36 (Human immunodeficiency virus type 1 group M subtype B, UniProt P04578); assay: Thermostability of 6-HB formed with N36, by CD; assay type: binding, HIV-1; details: CD at 222 nm, 20 to 98 °C at 1.2 °C/min, 10 μM peptide in PBS
T2 construct: purchased KareBay Biochem, Inc; host or cells: solid-phase chemical synthesis
T2 sequence (P04578 546-581): as above
Method: CD spectroscopy was conducted as previously described. Briefly, a CHR peptide was incubated with NHR peptide N36 at concentration of 10 μM at 37 °C for 30 min. The separated C-peptides were also measured. The CD spectra were measured on a Jasco spectropolarimeter (model J-815; Jasco, Inc., Easton, MD, USA), using a 1-nm bandwidth with a 1-nm step resolution from 195 to 260 nm at room temperature. The spectra were corrected by subtraction of PBS. The α-helical content was calculated from the CD signal by dividing the mean residue ellipticity [θ] at 222 nm by the value expected for 100% helix formation (-33,000 deg·cm^2·dmol^-1). The thermal denaturation experiment was performed by monitoring the changes in ellipticity [θ] at 222 nm at increasing temperature from 20 to 98 °C at a rate of 1.2 °C/min; data were acquired at a 1-nm bandwidth at 222 nm at a frequency of 0.25 Hz. The melting curve was smoothed, and the midpoint of the thermal unfolding transition (Tm) value was taken as the maximum of the derivative d[θ] 222/dt. Tm value was detected at a peptide concentration of 10 μM in PBS buffer.

[5] = tested on: cell-cell fusion between H9/HIV-1IIIB and MT-2 cells; details: IC50 comparison with CP24
Method: The inhibitory activity of peptides against cell-cell fusion between H9/HIV-1IIIB and MT-2 cells was detected, as described previously [3, 81]. Briefly, H9/HIV-1IIIB cells were labeled with a fluorescent reagent, Calcein AM (Molecular Probes, Inc., Eugene, Oregon), and then incubated with MT-2 cells (ratio = 1:10) in a 96-well plate at 37 °C for 2 h in the presence of a test peptide at graded concentrations or PBS as a control. The fused and unfused Calcein-labeled HIV-1-infected cells were counted under an inverted fluorescence microscope (Zeiss, Germany). Three fields of each well were counted and the percentage of inhibition of cell fusion by peptides was calculated as described previously [81]. The IC50 values of fusion were calculated using the CalcusSn software [36] and the inhibition curves of best fit were generated with GraphPad Prism.

HIV-1 IIIB [6] = assay: Ex vivo anti-HIV-1 activity of sera from treated mice; assay type: in vivo; details: BALB/c mice, i.p., N6 3.2 mg/kg and/or IBP-CP24 1.8 mg/kg
Method: The ex vivo anti-HIV-1 activity of a peptide or a bNAb or their combination in serum samples from mice treated with the peptide or bNAb was detected as described previously. […] Sera were collected from these mice at 2 and 8 h post-injection and tested for their inhibitory activity against HIV-1IIIB infection as described above. The dilution fold of the serum causing 50% inhibition (DF-IC50) was calculated.

| Molecule | average IC50 fold of that of CP24, T20-resistant strains (T20-resistant strains) | Kd (rhesus monkey IgG) | inhibition of 6-HB formation between N36 and C34 [1] | effect on 10E8-mediated lytic activity [2] | t1/2 [3] | AUC(0-t) [3] | Cmax [3] | MRT 0-inf_obs [3] | Tmax [3] | Dose reduction (HIV-1 IIIB [4]) | Tm of the 6-HB formed with N36 (gp41 NHR peptide N36) | fold of CP24 in cell-cell fusion inhibition [5] | DF-IC50 (dilution fold of serum causing 50% inhibition of HIV-1 IIIB infection) (HIV-1 IIIB [6]; sera 2 h post-injection) | DF-IC50 (dilution fold of serum causing 50% inhibition of HIV-1 IIIB infection) (HIV-1 IIIB [6]; sera 8 h post-injection) |
| --- | --- | --- | --- | --- | --- | --- | --- | --- | --- | --- | --- | --- | --- | --- |
| CC[C@H](C)[C@H](NC(=O)[C@H](CC(C)C)NC(=O)[C@H](CCC(=O)O)NC(=O)[C@H](CCC(=O)O)NC(=O)[C@@H](NC(=O)[C@H](CCCCN)NC(=O)[C@H](CCCCN)NC(=O)[C@@H](NC(=O)[C@H](Cc1ccc(O)cc1)NC(=O)[C@H](CCC(=O)O)NC(=O)[C@H](CCC(=O)O)NC(=O)[C@@H](NC(=O)[C@H](CCCCN)NC(=O)[C@H](CCCCN)NC(=O)[C@H](CC(=O)O)NC(=O)[C@H](Cc1c[nH]c2ccccc12)NC(=O)[C@H](CCC(=O)O)NC(=O)[C@H](CCC(=O)O)NC(=O)[C@H](Cc1c[nH]c2ccccc12)NC(=O)[C@@H](NC(=O)[C@H](CCSC)NC(=O)[C@@H](NC(=O)[C@@H]1CSSC[C@H](NC(=O)[C@@H](N)CC(=O)O)C(=O)N[C@@H](C)C(=O)N[C@@H](Cc2c[nH]c3ccccc23)C(=O)N[C@@H](Cc2c[nH]cn2)C(=O)N[C@@H](CC(C)C)C(=O)NCC(=O)N[C@@H](CCC(=O)O)C(=O)N[C@@H](CC(C)C)C(=O)N[C@@H](C(C)C)C(=O)N[C@@H](Cc2c[nH]c3ccccc23)C(=O)N1)[C@@H](C)O)[C@@H](C)O)[C@@H](C)CC)[C@@H](C)O)[C@@H](C)CC)C(=O)N[C@@H](CCCCN)C(=O)N[C@@H](CCCCN)C(=O)N[C@@H](CO)C(=O)O [IBP-CP24] (H-DCAWHLGELVWCTMTWEEWDKKIEEYTKKIEELIKKS-OH; disulfide 2-12; N-terminus and C-terminus assumed) | about 1.5 fold | 557 nM | much stronger inhibition on 6-HB formation than CP24 itself | remained about the same | 44.81 h | 3610.65 µg·h/mL | 76.23 µg/mL | 61.39 h | 4 h | 3.6 fold | 85.25 °C | about 1.2 fold | 35 | 16 |
| MTWEEWDKKIEEYTKKIEELIKKS [CP24, reference compound] | – | – | – | remained about the same | 1.37 h | 237.88 µg·h/mL | 77.82 µg/mL | 3.17 h | 2 h | – | 78.69 °C | – | – | – |
